Measurements as given in US20070142392A1, “Uses of rifamycins” (ActivBiotics, Inc., priority 2005, published 2007).
≈ marks a conversion by molar mass, not a printed value. Like-named read-outs stand apart in the source and are kept apart here.

Columns and labels:
S. pneumo. = experiment: MIC values, S. pneumo. (Tables 1-4); type: cell-based
H. flu = type: cell-based
C. trachomatis = experiment: MIC values, C. trachomatis (Table 2); type: cell-based
S. aureus [1] = experiment: MIC values, S. aureus (Tables 1-4); type: cell-based
E. faecalis = experiment: MIC values, E. faecalis (Tables 1-4); type: cell-based
E. coli = experiment: MIC values, E. coli (Tables 1-4); type: cell-based
S. aureus ATCC29213 [2] = experiment: minimal bactericidal concentration for logarithmic phase growth (MBClog); type: cell-based
Protocol: (§1) FIG. 2A is a schematic illustration showing the peak drug concentration of Compound 86 (1.13 μg/ml) in cage fluid from non-infected animals after single dose of 12.5 mg/kg. […] In this medium, bacterial counts remained stable in the absence of antibacterial agents for >36 hours.
(§2) In this medium, bacterial counts remained stable in the absence of antibacterial agents for >36 hours.
(§3) To understand the relative efficacy of peak drug concentration, it is compared to the minimal inhibitory concentration (MIC), the minimal bactericidal concentration for logarithmic phase growth (MBClog) and the MBCstat. […] The MBClog was defined as antimicrobial concentration that reduced the original inoculum by […] after 24 hour incubation (i.e. 3 log 10 CFU/ml), as described in the Manual of Clinical Microbiology. The MBCstat was determined as described in Example 1.

S. aureus ATCC29213 [3] = experiment: MIC by broth dilution method; type: cell-based; details: S. aureus ATCC29213, inoculum 5×10^5 CFU/ml
Protocol: as §1, §2, §3

[4] = guinea pig, in vivo, ip
Excerpt: (§4) For pharmacokinetic studies, non-infected animals were used. […] Teflon tissue cages were implanted into the flanks of guinea pigs. For pharmacokinetic studies, non-infected animals were used.

S. aureus [5] = experiment: Foreign-body (tissue cage) infection model, antimicrobial treatment; type: in vivo, guinea pigs; details: for Cure rate of removed cages: cages removed day 9; for Mean log10 CFU/ml ± SD in aspirated cage fluid, during treatment / no. culture negative/total no., cage fluid during treatment: day 4; for Mean log10 CFU/ml ± SD in aspirated cage fluid, after treatment / no. culture negative/total no., cage fluid after treatment: day 9
Protocol: For pharmacokinetic studies, non-infected animals were used. […] Antibiotics were administered intraperitoneally every 12 hours for four days (total eight doses). […] The cure rate is the fraction of cages in which the infection was eradicated. […] Following incubation, 50 μl of the TSB mixture was plated on blood agar plates to determine the presence of bacteria. A foreign-body infection model in guinea pigs was used for in vivo analysis of antimicrobials as described in Example 2, however in this example the animals were infected. […] Antibiotics were administered intraperitoneally every 12 hours for four days (total eight doses).

S. aureus [6] = experiment: minimal bactericidal concentration in the stationary growth phase (MBCstat); type: cell-based; details: Staphylococcus aureus, 1% glucose PBS pH 7.4 with 4% Muller Hinton Broth
Protocol: as §1, §2
The minimal bactericidal concentration in the stationary growth phase (MBCstat) was determined by using overnight bacterial cultures which were centrifuged and resuspended in medium containing 1% glucose supplemented phosphate buffered saline (PBS) pH 7.4 with 4% Muller Hinton Broth (Zimmerli et al., J Antimicrob. Chemother. 33:959-967 (1994)). In this medium, bacterial counts remained stable in the absence of antibacterial agents for >36 hours.

in vivo = details: albino, guinea pig, ip
Excerpt: as §4

## CO[C@H]1/C=C/O[C@@]2(C)Oc3c(C)c(O)c4c(=O)c(c5oc6c7c(cc(O)c6nc-5c4c3C2=O)N(C(C)C)CCN7C(C)C)NC(=O)/C(C)=C\C=C\[C@H](C)[C@H](O)[C@@H](C)[C@@H](O)[C@@H](C)[C@H](OC(C)=O)[C@@H]1C [Compound 84]
S. pneumo.
  MIC S. pneumo.: 0.008 µg/mL (≈ 0.0085 µM)
H. flu
  MIC H. flu: 2 µg/mL (≈ 2.13 µM)
C. trachomatis
  MIC C. trachomatis: 0.01 µg/mL (≈ 0.0106 µM)
S. aureus [1]
  MIC S. aureus: 0.06 µg/mL (≈ 0.0638 µM)
E. faecalis; Table 2
  MIC F. faecalis: 4 µg/mL (≈ 4.25 µM)
E. coli
  MIC E. coli: >8 µg/mL

## CO[C@H]1/C=C/O[C@@]2(C)Oc3c(C)c(O)c4c(=O)c(c5oc6cc(N7CCN(C)CC7)cc(O)c6nc-5c4c3C2=O)NC(=O)/C(C)=C\C=C\[C@H](C)[C@H](O)[C@@H](C)[C@@H](O)[C@@H](C)[C@H](O)[C@@H]1C [Compound 86]
S. pneumo.
  MIC S. pneumo.: 0.00012 µg/mL (≈ 0.00014 µM)
H. flu
  MIC H. flu: 0.25 µg/mL (≈ 0.292 µM)
S. aureus ATCC29213 [2]; 24 hour incubation
  MBClog: 0.008 μg/ml
S. aureus [1]
  MIC S. aureus: 0.002 µg/mL (≈ 0.00233 µM)
S. aureus ATCC29213 [3]
  minimal inhibitory concentration (MIC): 0.002 µg/mL (≈ 0.00233 µM)
E. faecalis
  MIC E. faecalis: 0.015 µg/mL (≈ 0.0175 µM)
[4]; 3 mg/kg
  Cmin: 40 ± 10 ng/mL
[4]; 12.5 mg/kg
  Cmax (peak drug concentration): 1130 ng/mL
  Cmin: 140 ± 110 ng/mL
  Tmax: 8 h
E. coli
  MIC E. coli: 4 µg/mL (≈ 4.67 µM)
S. aureus [5]; 3 mg/kg/12 h i.p.
  Cure rate of removed cages: 8% (1/12)
  Mean log10 CFU/ml ± SD in aspirated cage fluid, during treatment: 4.76 ± 0.51 log10 CFU/ml
  no. culture negative/total no., cage fluid during treatment: 2/12
  Mean log10 CFU/ml ± SD in aspirated cage fluid, after treatment: 2.77 ± 0.53 log10 CFU/ml
  no. culture negative/total no., cage fluid after treatment: 4/12
S. aureus [5]; 12.5 mg/kg/12 h i.p.
  Cure rate of removed cages: 58%
  Mean log10 CFU/ml ± SD in aspirated cage fluid, during treatment: 3.24 ± 0.27 log10 CFU/ml
  no. culture negative/total no., cage fluid during treatment: 5/12
  Mean log10 CFU/ml ± SD in aspirated cage fluid, after treatment: 1.57 ± 0.53 log10 CFU/ml
  no. culture negative/total no., cage fluid after treatment: 10/12
S. aureus [5]; 12.5 mg/kg/12 h i.p., listed as Cpd 86
  Cure rate of removed cages: 58% (7/12)

## CO[C@H]1/C=C/O[C@@]2(C)Oc3c(C)c(O)c4c(=O)c(c5oc6cc(N7CC8CCC(C7)N8C)cc(O)c6nc-5c4c3C2=O)NC(=O)/C(C)=C\C=C\[C@H](C)[C@H](O)[C@@H](C)[C@@H](O)[C@@H](C)[C@H](OC(C)=O)[C@@H]1C [Compound 151]
S. aureus [6]
  MBC: 0.156 µg/mL (≈ 0.169 µM)

## CO[C@H]1/C=C/O[C@@]2(C)Oc3c(C)c(O)c4c(=O)c(c5oc6cc(N7CC(N(C)C)C7)cc(O)c6nc-5c4c3C2=O)NC(=O)/C(C)=C\C=C\[C@H](C)[C@H](O)[C@@H](C)[C@@H](O)[C@@H](C)[C@H](OC(C)=O)[C@@H]1C [Compound 152]
S. aureus [6]
  MBC: 0.469 µg/mL (≈ 0.522 µM)

## C[C@H]1COc2c(N3CCN(C)CC3)c(F)cc3c(=O)c(C(=O)O)cn1c23 [Levofloxacin, levofloxacin]
S. aureus [6]
  MBC: 40 µg/mL (≈ 111 µM)
In vivo; 5 mg/kg
  Tmax: 2 h
  concentration at 12 h: 10 ± 10 ng/mL

## CO[C@H]1/C=C/O[C@@]2(C)Oc3c(C)c(O)c4c(O)c(c(/C=N/N5CCN(C)CC5)c(O)c4c3C2=O)NC(=O)/C(C)=C\C=C\[C@H](C)[C@H](O)[C@@H](C)[C@@H](O)[C@@H](C)[C@H](OC(C)=O)[C@@H]1C [Rifampin, rifampin, reference compound]
S. aureus ATCC29213 [2]; Staphylococcus aureus, ATCC29213, 24 hour incubation
  MBC: 0.8 µg/mL (≈ 0.972 µM)
S. aureus [6]
  MBC: 3.6 µg/mL (≈ 4.37 µM)
S. aureus ATCC29213 [3]; Staphylococcus aureus, read-out: minimal inhibitory concentration (MIC)
  MIC: 0.016 µg/mL (≈ 0.0194 µM)
[4]; 12.5 mg/kg
  Tmax: two
In vivo; 12.5 mg/kg
  AUC: 4560 ng·h/mL
  Cmax: 980 ng/mL
  Tmax: 2 h
  concentration at 12 h: 140 ± 90 ng/mL
S. aureus [5]; 12.5 mg/kg/12 h i.p.
  Mean log10 CFU/ml ± SD in aspirated cage fluid, during treatment: 3.68 ± 0.59 log10 CFU/ml
  no. culture negative/total no., cage fluid during treatment: 11/24
  Mean log10 CFU/ml ± SD in aspirated cage fluid, after treatment: 1.43 ± 0.28 log10 CFU/ml
  no. culture negative/total no., cage fluid after treatment: 19/24
